Laboratory results published in patent US20110059076A1, “HUMAN SERUM ALBUMIN LINKERS AND CONJUGATES THEREOF” (priority 2008, published 2011).

How the values were obtained:
[1] = system: 10 tumor xenograft models; assay: activity in 10 tumor xenograft models versus ErbB2 expression; assay type: in vivo; conditions: low to high ErbB2
[2] = system: ErbB3 phosphorylation in BT-474-M3 cells; assay: HRG-induced ErbB3 phosphorylation ELISA in BT-474-M3; assay type: cell-based, human; conditions: BT-474-M3, dose titration 24 hours, 5 nM HRG 1β EGF domain 10 minutes
Procedure: Except as noted, ELISA reagents for total and phospho-ErbB3 ELISAs are purchased from R&D Systems as DUOSET kits. 96-well NUNC MAXISORB plates are coated with 50 μl of an antibody and incubated overnight at room temperature. Next morning, plates are washed 3 times with 1000 μl/well in a BIOTEK plate washer with Dulbecco's phosphate buffered saline without calcium or magnesium (PBS) with added Tween detergent (PBST) (0.05% Tween-20). […] The plates are washed 3 times with 1000 μl/well in the BIOTEK plate washer with PBST. Cells are grown at 37° C. and 5% carbon dioxide, washed with cold PBS, then harvested with mammalian protein extract (MPER) lysis buffer (Pierce, 78505) to which 150 mM NaCl, 5 mM sodium pyrophosphate, 10 uM bpV (phen), 50uM phenylarsine, 1 mM sodium orthovanadate, and protease inhibitor cocktail (Sigma, P2714) is added. 50 μL of cell lysates and standards diluted in 50% Lysis buffer and 1% BSA are used in duplicates for further processing. Samples are incubated for 2hrs at 4° C. on a plate shaker and washed as before. About 50 μl of a detection antibody diluted in 2% BSA, PBST is added and incubated for about 1-2 hrs at room temperature. […] About 50 μL of SUPERSIGNAL ELISA Pico (Thermo Scientific) substrate is added and the plate is read using a FUSION plate reader. […]

[3] = system: control BT-474-M3 breast cancer cell xenografts; assay: BT-474-M3 shControl xenografts; assay type: in vivo, nude mice; conditions: 30 mg/kg B2B3-1 every 3 days or 10 mg/kg trastuzumab every week, i.p.
Procedure: ShRNA technology is applied to knock out the activity of the tumor suppressor gene phosphatase and tensin homolog (PTEN) in BT-474-M3 breast cancer cells. Briefly, cultured BT-474-M3 cells are transfected with shPTEN or shControl RNA by retroviral transfection. Transfected cells with reduced PTEN are selected using FACS and subsequently injected subcutaneously into the right flank of nude mice to establish xenograft tumors. Cells transfected with a control vector are injected into the left flank of the same mouse. […] All injections are done i.p.

[4] = system: phosphorylated ErbB3 in BT-474-M3 xenograft tumors; assay: pErbB3 Western blot of xenograft tumors; assay type: in vivo; conditions: 30 mg/kg every 3 days, 4 doses, harvested 24 hours after final dose
Excerpt: Equal quantities of protein are loaded in each lane and total protein levels are controlled by probing for beta tubulin.

## B2B3-1: bispecific scFv antibody fusion: anti-ErbB3 scFv H3 and anti-ErbB2 scFv B1D2 joined by a modified human serum albumin (HSA) linker
[1]
  xenograft response in relation to ErbB2 expression levels: correlates positively
[2]
  inhibition of HRG induced ErbB3 phosphorylation: inhibits
[3]
  size of tumors formed by control BT-474-M3 cells: promoted a reduction
[4]
  pErbB3 in tumors compared to HSA treated tumors: significantly less pErbB3
